Assay results as given in PubChem BioAssay (NCI).
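1) Cells in 96-well plates. 2) Compound, 48 h, 5 concentrations. 3) Linear interpolation between surrounding doses. 4) Unreached endpoint = highest concentration. TGI marks complete inhibition of growth.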

Assays:
Test in all cases: inhibition of tumour cell growth, NCI panel, 48 h
786-0 renal = system: 786-0 renal
A498 renal = system: A498 renal
A549 NSCLC = system: A549 NSCLC
ACHN renal = system: ACHN renal
BT-549 breast = system: BT-549 breast
CAKI-1 renal = system: CAKI-1 renal
COLO 205 colon = system: COLO 205 colon
DU-145 prostate = system: DU-145 prostate
EKVX NSCLC = system: EKVX NSCLC
HCC-2998 colon = system: HCC-2998 colon
HCT-116 colon = system: HCT-116 colon
HCT-15 colon = system: HCT-15 colon
HL-60(TB) leukemia = system: HL-60(TB) leukemia
HOP-62 NSCLC = system: HOP-62 NSCLC
HOP-92 NSCLC = system: HOP-92 NSCLC
HS 578T breast = system: HS 578T breast
HT29 colon = system: HT29 colon
IGROV1 ovarian = system: IGROV1 ovarian
K-562 leukemia = system: K-562 leukemia
KM12 colon = system: KM12 colon
LOX IMVI melanoma = system: LOX IMVI melanoma
M14 melanoma = system: M14 melanoma
MALME-3M melanoma = system: MALME-3M melanoma
MCF7 breast = system: MCF7 breast
MDA-MB-231 breast = system: MDA-MB-231 breast
MDA-MB-435 = system: MDA-MB-435
MDA-N = system: MDA-N
MOLT-4 leukemia = system: MOLT-4 leukemia
NCI-H226 lung = system: NCI-H226 lung
NCI-H460 lung = system: NCI-H460 lung
NCI-H522 lung = system: NCI-H522 lung
NCI/ADR-RES ovarian = system: NCI/ADR-RES ovarian
OVCAR-3 ovarian = system: OVCAR-3 ovarian
OVCAR-4 ovarian = system: OVCAR-4 ovarian
OVCAR-5 ovarian = system: OVCAR-5 ovarian
OVCAR-8 ovarian = system: OVCAR-8 ovarian
PC-3 prostate = system: PC-3 prostate
RPMI-8226 leukemia = system: RPMI-8226 leukemia
RXF 393 renal = system: RXF 393 renal
SF-268 CNS = system: SF-268 CNS
SF-295 CNS = system: SF-295 CNS
SF-539 CNS = system: SF-539 CNS
SK-MEL-2 melanoma = system: SK-MEL-2 melanoma
SK-MEL-28 melanoma = system: SK-MEL-28 melanoma
SK-MEL-5 melanoma = system: SK-MEL-5 melanoma
SK-OV-3 ovarian = system: SK-OV-3 ovarian
SN12C renal = system: SN12C renal
SNB-19 CNS = system: SNB-19 CNS
SNB-75 CNS = system: SNB-75 CNS
SR leukemia = system: SR leukemia
SW-620 colon = system: SW-620 colon
T-47D breast = system: T-47D breast
TK-10 renal = system: TK-10 renal
U251 CNS = system: U251 CNS
UACC-257 melanoma = system: UACC-257 melanoma
UACC-62 melanoma = system: UACC-62 melanoma
UO-31 renal = system: UO-31 renal
CCRF-CEM leukemia = system: CCRF-CEM leukemia
NCI-H23 lung = system: NCI-H23 lung

`Clc1ccc(Cc2nc3cc(Cl)c(Cl)cc3n2CC2CCCN3CCCCC23)cc1Cl` (stereo not given) gave a TGI (786-0 renal) of 12.7 µM, a TGI (A498 renal) of 21 µM and a TGI (A549 NSCLC) of 20 µM. For the same compound, the TGI (ACHN renal) was 16.1 µM, the TGI (BT-549 breast) was 21.4 µM and the TGI (CAKI-1 renal) was 15.9 µM. For the same compound, the TGI (COLO 205 colon) was 4.83 µM, the TGI (DU-145 prostate) was 19.4 µM and the TGI (EKVX NSCLC) was 11.1 µM. It also gave a TGI (HCC-2998 colon) of 3.45 µM, a TGI (HCT-116 colon) of 10.7 µM and a TGI (HCT-15 colon) of 17.1 µM. It also gave a TGI (HL-60(TB) leukemia) of 5.93 µM, a TGI (HOP-62 NSCLC) of 24.5 µM and a TGI (HOP-92 NSCLC) of 22.8 µM. It also gave a TGI (HS 578T breast) of 19.2 µM, a TGI (HT29 colon) of 6.85 µM and a TGI (IGROV1 ovarian) of 15.4 µM. For the same compound, the TGI (K-562 leukemia) was > 100 µM, the TGI (KM12 colon) was 7.51 µM and the TGI (LOX IMVI melanoma) was 6 µM. The TGI (M14 melanoma) was 4.04 µM, the TGI (MALME-3M melanoma) was 3.91 µM and the TGI (MCF7 breast) was 7.15 µM. For the same compound, the TGI (MDA-MB-231 breast) was 7.84 µM, the TGI (MDA-MB-435) was 17.2 µM and the TGI (MDA-N) was 16.5 µM. For the same compound, the TGI (MOLT-4 leukemia) was > 100 µM, the TGI (NCI-H226 lung) was 26.8 µM and the TGI (NCI-H460 lung) was 9.75 µM. For the same compound, the TGI (NCI-H522 lung) was 3.54 µM, the TGI (NCI/ADR-RES ovarian) was 17.2 µM and the TGI (OVCAR-3 ovarian) was 33.2 µM. The TGI (OVCAR-4 ovarian) was 20.3 µM, the TGI (OVCAR-5 ovarian) was 12.3 µM and the TGI (OVCAR-8 ovarian) was 22.6 µM. The TGI (PC-3 prostate) was 14.1 µM, the TGI (RPMI-8226 leukemia) was > 100 µM and the TGI (RXF 393 renal) was 30.7 µM. The TGI (SF-268 CNS) was 15.8 µM, the TGI (SF-295 CNS) was 10.5 µM and the TGI (SF-539 CNS) was 4.17 µM. For the same compound, the TGI (SK-MEL-2 melanoma) was 19.7 µM, the TGI (SK-MEL-28 melanoma) was 10.7 µM and the TGI (SK-MEL-5 melanoma) was 4.38 µM. For the same compound, the TGI (SK-OV-3 ovarian) was 13.4 µM, the TGI (SN12C renal) was 15.8 µM and the TGI (SNB-19 CNS) was 8.2 µM. The TGI (SNB-75 CNS) was 12 µM, the TGI (SR leukemia) was 7.6 µM and the TGI (SW-620 colon) was 4.9 µM. It also gave a TGI (T-47D breast) of 33.4 µM, a TGI (TK-10 renal) of 19.5 µM and a TGI (U251 CNS) of 13.7 µM. It also gave a TGI (UACC-257 melanoma) of 10.6 µM, a TGI (UACC-62 melanoma) of 5.42 µM and a TGI (UO-31 renal) of 1.25 µM.
`C1CSC2=C(S1)SC1=C(S2)SC(=C2SC3=C(SC4=C(SCCS4)S3)S2)S1` was tested, and the TGI (786-0 renal) was > 100 µM, the TGI (A498 renal) was > 100 µM and the TGI (A549 NSCLC) was > 100 µM. For the same compound, the TGI (ACHN renal) was > 100 µM, the TGI (BT-549 breast) was > 100 µM and the TGI (CAKI-1 renal) was > 100 µM. For the same compound, the TGI (CCRF-CEM leukemia) was > 100 µM, the TGI (COLO 205 colon) was > 100 µM and the TGI (DU-145 prostate) was > 100 µM. The TGI (EKVX NSCLC) was > 100 µM, the TGI (HCC-2998 colon) was > 100 µM and the TGI (HCT-116 colon) was > 100 µM. For the same compound, the TGI (HCT-15 colon) was > 100 µM, the TGI (HL-60(TB) leukemia) was > 100 µM and the TGI (HOP-62 NSCLC) was > 100 µM. The TGI (HOP-92 NSCLC) was > 100 µM, the TGI (HS 578T breast) was > 100 µM and the TGI (HT29 colon) was > 100 µM. For the same compound, the TGI (IGROV1 ovarian) was > 100 µM, the TGI (K-562 leukemia) was > 100 µM and the TGI (KM12 colon) was > 100 µM. The TGI (M14 melanoma) was > 100 µM, the TGI (MALME-3M melanoma) was > 100 µM and the TGI (MCF7 breast) was > 100 µM. For the same compound, the TGI (MDA-MB-231 breast) was > 100 µM, the TGI (MDA-MB-435) was > 100 µM and the TGI (MDA-N) was > 100 µM. For the same compound, the TGI (MOLT-4 leukemia) was > 100 µM, the TGI (NCI-H226 lung) was > 100 µM and the TGI (NCI-H23 lung) was > 100 µM. The TGI (NCI-H460 lung) was > 100 µM, the TGI (NCI-H522 lung) was > 100 µM and the TGI (NCI/ADR-RES ovarian) was > 100 µM. The TGI (OVCAR-3 ovarian) was > 100 µM, the TGI (OVCAR-4 ovarian) was > 100 µM and the TGI (OVCAR-5 ovarian) was > 100 µM. The TGI (OVCAR-8 ovarian) was > 100 µM, the TGI (PC-3 prostate) was > 100 µM and the TGI (RPMI-8226 leukemia) was > 100 µM. The TGI (RXF 393 renal) was > 100 µM, the TGI (SF-268 CNS) was > 100 µM and the TGI (SF-295 CNS) was > 100 µM. The TGI (SF-539 CNS) was > 100 µM, the TGI (SK-MEL-2 melanoma) was > 100 µM and the TGI (SK-MEL-28 melanoma) was > 100 µM. For the same compound, the TGI (SK-MEL-5 melanoma) was > 100 µM, the TGI (SK-OV-3 ovarian) was > 100 µM and the TGI (SN12C renal) was > 100 µM. The TGI (SNB-19 CNS) was > 100 µM, the TGI (SNB-75 CNS) was > 100 µM and the TGI (SR leukemia) was > 100 µM. For the same compound, the TGI (SW-620 colon) was > 100 µM, the TGI (T-47D breast) was > 100 µM and the TGI (TK-10 renal) was > 100 µM. The TGI (U251 CNS) was > 100 µM, the TGI (UACC-257 melanoma) was > 100 µM and the TGI (UACC-62 melanoma) was > 100 µM. For the same compound, the TGI (UO-31 renal) was > 100 µM.
